According to US12630512B2, “Agents for differentiating stem cells and treating cancer” (Minerva Biotechnologies Corporation, priority 2017, dated 2026):

Assays:
[1] = system: human naïve state stem cells; assay: Stem cell drug screen on naïve state stem cells (pluripotency, proliferation, differentiation); format: cell-based; set-up: key to score for inhibition of naïve stem cell pluripotency and proliferation: 0 being no change in morphology or cell number; 4 being the most profound effect; conditions: naïve state stem cells; for inhibition at 6 µM: Homo sapiens, 6 uM final concentration per FIGS. 46-64, read-out: inhibited naïve stem cell pluripotency and proliferation; for score for inhibition of naïve stem cell pluripotency and proliferation: scored by eye 0-4, 6 uM per FIGS. 46-64
Experimental: The stem cell screening assay, was performed in both the presence and absence of the stem cell growth factors: NME7AB for growing naïve stem cells or FGF for growing primed stem cells. If the cognate growth factor was present, then the biological or small molecule would have to compete away the growth factor to get an effect. Therefore, we expected to see more of an effect when the growth factor, FGF for primed stem cells or NME7AB or NME1 dimers for naïve stem cells, was absent. The effect of the compounds on stem cells was visually determined and compounds were ranked 0-4, with 4 being the greatest effect and 0 being no observable effect. The major effect that was observed was a change from pluripotent stem cell morphology, which is a cobblestone pattern of small round cells with a large nucleus to cytoplasm ratio, to that of differentiating stem cells, which are elongated, large and flattened cells with a smaller nucleus to cytoplasm ratio. […] The compounds were added to a final concentration of 6 uM to either naïve state stem cells or primed state stem cells. In this particular case, the naïve state stem cells were maintained in a naïve state by culturing in a media containing NME7AB or NME1 dimers. However, other methods such as 2i and 5i (Silva et al., 2008, Nichols and Smith, 2009, Theunissen et al., 2014)] can be used to maintain stem cells in a more naïve state. In this case primed state stem cells were cultured in bFGF over a layer of MEFs, although it is known that any bFGF containing media will maintain stem cells in the primed state.
Percent inhibition of cancer cell migration was performed in a wound healing assay. The percent area that the invading cancer cells occupied, in the presence of a drug candidate compared to the controls, was quantified by Image J cell software which enables cell counting from photographs. IC50's were calculated by performing migration experiments at several compound concentrations and then applying Hill's equation. Inhibition of cancer cell proliferation was quantified by automated cell counting in the presence or absence of a drug candidate. Here, the inhibition of cancer cell proliferation was scored 1 if proliferation was inhibited by 25%, 2 if inhibited by […] and 4 for the highest degree of inhibition of proliferation, and 0 for the lowest. The effect of the drug candidates on stem cell pluripotency or proliferation was scored by eye, based on cell morphology and cell density, with 0 being no change in morphology or cell number and 4 being the most profound effect, with the stem cells taking on the morphology of a differentiating cell, along with much fewer cells indicative of inhibition of proliferation. As an example, FIGS. 30A-30F show photographs of naïve stem cell, primed stem cell and fibroblast controls. FIGS. 31A-31F show the effect of compounds of the invention on naïve state stem cells, where the number of ‘+’ signs indicates the score from 0-4 of ability of compound to inhibit pluripotency, proliferation of naïve stem cells or ability to induce their differentiation. […] FIGS. 36-44 and 65-87 show photographs and IC50 graphs of the compounds of the invention, inhibiting cancer cell migration and invasion. Cancer cell migration is a hallmark of metastatic cancer.
Stem cells whether embryonic or induced pluripotent stem (iPS) cells were cultured in a minimal, serum-free media that contained human recombinant NME7AB at a concentration of 2-32 nM wherein 4-8 nM is preferred and 4 nM is more preferred. To facilitate surface attachment, cell culture plates were coated with an anti-MUC1* monoclonal antibody called MN-C3 or C3 or MN-C8 at a concentration of 2-100 μg/mL coating solution, wherein 3-50 ug/mL is preferred and 6-12.5 ug/mL is more preferred. In these experiments, 12.5 ug/mL of MN-C3 was used. Antibody coated plates were incubated at 4 degrees C. overnight prior to plating stem cells. A Rho kinase I inhibitor was added to enhance surface attachment. […]

[2] = system: micro-RNA-145; assay: RT-PCR measurement of miR-145 in T47D cancer cells; format: cell-based, human; conditions: treated for 72 hours (FIG. 92A-92C)
Experimental: FIGS. 92A-92C show graphs of RT-PCR measurement of T47D cancer cells treated for 72 hours with compounds of the invention at the indicated concentrations, wherein the gene that is measured is micro-RNA-145, which is a harbinger of stem cell differentiation
(§1) We used RT-PCR to measure changes in the expression of some of these super-enhancer genes, AXIN2, which is a surrogate for activated β-catenin, miR-145, MUC1 and MUC1* ligands NME7AB and NME7-X1. […] Thus, compounds of the invention, at least in part, inhibit tumor cell migration and invasiveness by inducing expression of genes that are critical for differentiation, some of which are super-enhancer target genes, and miR-145, while decreasing expression of β-catenin, MUC1 and its growth factor NME7AB. Novel compounds of the invention are powerful agents for the treatment or prevention of cancers and metastatic cancers. […] In one aspect of the invention, a biological sample from a patient is tested for the presence of MUC1*, NME7AB or NME7-X1, and upon finding that the patient's cancer is positive for MUC1*, NME7AB or NME7-X1, a compound of the invention is administered to the patient in an amount suitable to prevent or treat the cancer. In one instance, the patient sample is subjected to a test, such as PCR, to determine the amount of nucleic acid that encodes MUC1, NME7 or NME7-X1. […] In another aspect of the invention, the patient's cancer is considered to be MUC1* positive, NME7AB positive or NME7-X1 positive if expression of those genes is equal to or greater than 0.5% of EEF1A1 expression in those cells. In yet another aspect of the invention, the patient's cancer is considered to be MUC1* positive if the patient's tissue specimen is contacted with an antibody that binds to the PSMGFR peptide or the N-10 peptide and stains the tissue with a pathologist's standard score 1-4 (“+−++++”). […]

[3] = system: micro-RNA-145; assay: RT-PCR measurement of miR-145 in naïve state stem cells; format: cell-based, human; conditions: treated for 72 hours (FIG. 91A-91C)
Experimental: FIGS. 91A-91C show graphs of RT-PCR measurement of naïve state stem cells treated for 72 hours with compounds of the invention at the indicated concentrations, wherein the gene that is measured is micro-RNA-145, which is a harbinger of stem cell differentiation.
as §1

| SMILES | inhibition at 6 µM [1] | score for inhibition of naïve stem cell pluripotency and proliferation [1] | expression of miR-145 in T47D cancer cells [2] | expression of miR-145 in naïve state stem cells [3] |
| --- | --- | --- | --- | --- |
| CN(C[C@H]1CC[C@H](C(=O)N2CCc3c([nH]c4ccccc34)C2C2CC2)CC1)C(=O)NC(C)(C)C (stereo partly drawn) [MN1413] | 100% | 4 | increased expression of miR-145 in cancer cells | increased expression of miR-145 |
| C[C@@H]1Cc2c([nH]c3ccccc23)CN1C(=O)C1CCC(CN(C)C(=O)NC(C)(C)C)CC1 (stereo partly drawn) [MN1423] | 100% | 4 | increased expression of miR-145 in cancer cells | increased expression of miR-145 |
| CN(CC1CCC(C(=O)N2CCC(c3ccncc3)CC2)CC1)C(=O)OC(C)(C)C (stereo not drawn) [MN1428, Tert-butyl methyl((4-(4-(pyridin-4-yl)piperidine-1-carbonyl)cyclohexyl)methyl)carbamate] | 100% | 4 | increased expression of miR-145 in cancer cells | increased expression of miR-145 |
